{
  "source": "ChEMBL document CHEMBL5331074",
  "about": "“Design and synthesis of new adamantyl derivatives as promising antiproliferative agents” (Eur J Med Chem, 2023)",
  "key": {"[1]": {"tested_on": "MOLT-4", "assay": "Cytotoxicity against human MOLT-4 cells assessed as cell growth inhibition", "format": "functional, cell-based"}, "[2]": {"assay": "Selectivity index, ratio of IC50 for cytotoxicity against human hTERT-HME1 cells to IC50 for cytotoxicity against human MCF7 cells", "format": "toxicity, cell-based", "conditions": "hTERT-HME1 cells and MCF7 cells, read-out: Ratio IC50"}, "[3]": {"biological_target": "Ectonucleotide pyrophosphatase/phosphodiesterase family member 1 (Homo sapiens, UniProt P22413)", "sequence (P22413 whole entry)": "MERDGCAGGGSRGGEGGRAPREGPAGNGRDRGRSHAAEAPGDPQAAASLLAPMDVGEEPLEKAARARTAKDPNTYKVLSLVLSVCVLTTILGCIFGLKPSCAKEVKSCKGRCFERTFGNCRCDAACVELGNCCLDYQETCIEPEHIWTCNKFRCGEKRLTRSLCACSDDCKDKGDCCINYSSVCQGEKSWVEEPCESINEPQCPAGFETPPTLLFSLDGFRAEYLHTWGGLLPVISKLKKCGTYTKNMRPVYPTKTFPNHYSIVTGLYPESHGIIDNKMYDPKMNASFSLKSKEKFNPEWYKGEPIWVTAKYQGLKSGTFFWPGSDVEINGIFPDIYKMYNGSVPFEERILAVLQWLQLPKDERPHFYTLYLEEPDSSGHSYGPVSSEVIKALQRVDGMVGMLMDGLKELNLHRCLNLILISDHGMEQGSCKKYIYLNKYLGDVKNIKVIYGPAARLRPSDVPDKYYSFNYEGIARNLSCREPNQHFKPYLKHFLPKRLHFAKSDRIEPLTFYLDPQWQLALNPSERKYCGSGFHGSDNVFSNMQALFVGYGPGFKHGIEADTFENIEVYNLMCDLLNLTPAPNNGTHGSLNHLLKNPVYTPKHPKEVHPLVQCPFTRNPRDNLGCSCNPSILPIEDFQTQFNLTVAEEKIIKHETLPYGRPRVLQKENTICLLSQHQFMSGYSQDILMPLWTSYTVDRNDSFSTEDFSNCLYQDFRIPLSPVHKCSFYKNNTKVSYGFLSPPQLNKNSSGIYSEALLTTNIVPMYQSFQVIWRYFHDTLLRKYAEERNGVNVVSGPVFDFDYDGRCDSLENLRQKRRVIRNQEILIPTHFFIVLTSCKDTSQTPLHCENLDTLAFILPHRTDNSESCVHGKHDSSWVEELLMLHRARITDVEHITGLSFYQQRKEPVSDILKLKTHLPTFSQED", "assay": "Inhibition of human NPP1 expressed in COS-7 cells using pNP-TMP as substrate preincubated for 10 mins followed by substrate addition and measured after 35 mins by microplate reader analysis", "format": "cell-based"}, "[4]": {"biological_target": "T1, Carbonic anhydrase 2 (Homo sapiens, UniProt P00918)", "assay": "Inhibition of Carbonic anhydrase 2 (unknown origin) at 100 uM using p-nitrophenyl acetate as substrate preincubated for 10 mins followed by substrate addition and measured after 30 mins by microplate reader method relative to control", "conditions": "time 40.0 min"}, "[5]": {"tested_on": "K562", "assay": "Induction of apoptosis in human K562 cells assessed as fold increase in caspase 3/7 activity at 0.58 uM (reference value: 1.03 +/- 0.02)", "format": "functional"}, "[6]": {"tested_on": "K562", "assay": "Induction of apoptosis in human K562 cells assessed as fold increase in caspase 3/7 activity at 1.16 uM (reference value: 1.03 +/- 0.02)", "format": "functional"}, "[7]": {"tested_on": "K562", "assay": "Induction of necrosis in human K562 cells assessed as LDH release at 1.16 uM (reference value: 0.20+/- 0.02%)", "format": "functional"}, "[8]": {"tested_on": "OVCAR-3", "assay": "Cytotoxicity against human OVCAR-3 cells assessed as cell growth inhibition", "format": "functional, cell-based"}, "[9]": {"assay": "Selectivity index, ratio of IC50 for cytotoxicity against human F180 cells to IC50 for cytotoxicity against human UACC-62 cells"}, "[10]": {"assay": "Selectivity index, ratio of IC50 for cytotoxicity against human F180 cells to IC50 for cytotoxicity against human SK-MEL-28 cells"}, "[11]": {"tested_on": "CCRF-CEM", "assay": "Cytotoxicity against human CCRF-CEM cells assessed as cell growth inhibition", "format": "functional, cell-based"}, "[12]": {"tested_on": "K562", "assay": "Induction of necrosis in human K562 cells assessed as LDH release at 0.58 uM (reference value: 0.20+/- 0.02%)", "format": "functional"}, "[13]": {"biological_target": "T2, Carbonic anhydrase 12 (Homo sapiens, UniProt O43570)", "T2 sequence (O43570 whole entry)": "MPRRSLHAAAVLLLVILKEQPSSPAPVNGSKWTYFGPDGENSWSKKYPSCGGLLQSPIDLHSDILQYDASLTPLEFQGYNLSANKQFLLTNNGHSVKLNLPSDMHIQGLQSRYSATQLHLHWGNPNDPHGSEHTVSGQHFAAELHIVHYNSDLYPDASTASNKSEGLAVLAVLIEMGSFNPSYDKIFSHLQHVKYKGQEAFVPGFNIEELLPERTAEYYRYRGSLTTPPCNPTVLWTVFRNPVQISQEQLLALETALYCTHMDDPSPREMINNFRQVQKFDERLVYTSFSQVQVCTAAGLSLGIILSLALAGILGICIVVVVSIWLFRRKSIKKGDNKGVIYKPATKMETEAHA", "assay": "Inhibition of Carbonic anhydrase 12 (unknown origin) using p-nitrophenyl acetate as substrate preincubated for 10 mins followed by substrate addition and measured after 30 mins by microplate reader method"}, "[14]": {"tested_on": "CAKI-1", "assay": "Cytotoxicity against human CAKI-1 cells assessed as cell growth inhibition", "format": "functional, cell-based"}, "[15]": {"tested_on": "K562", "assay": "Induction of necrosis in human K562 cells assessed as LDH release at 0.64 uM (reference value: 0.20+/- 0.02%)", "format": "functional"}, "[16]": {"biological_target": "T2, Carbonic anhydrase 12", "assay": "Inhibition of Carbonic anhydrase 12 (unknown origin) at 100 uM using p-nitrophenyl acetate as substrate preincubated for 10 mins followed by substrate addition and measured after 30 mins by microplate reader method relative to control", "conditions": "time 40.0 min"}, "[17]": {"tested_on": "K562", "assay": "Induction of apoptosis in human K562 cells assessed as fold increase in caspase 3/7 activity at 0.32 uM (reference value: 1.03 +/- 0.02)", "format": "functional"}, "[18]": {"biological_target": "T1, Carbonic anhydrase 2", "assay": "Inhibition of Carbonic anhydrase 2 (unknown origin) using p-nitrophenyl acetate as substrate preincubated for 10 mins followed by substrate addition and measured after 30 mins by microplate reader method"}, "[19]": {"tested_on": "K562", "assay": "Induction of necrosis in human K562 cells assessed as LDH release at 0.32 uM (reference value: 0.20+/- 0.02%)", "format": "functional"}, "[20]": {"tested_on": "K562", "assay": "Induction of apoptosis in human K562 cells assessed as fold increase in caspase 3/7 activity at 0.64 uM (reference value: 1.03 +/- 0.02)", "format": "functional"}, "[21]": {"assay": "Selectivity index, ratio of IC50 for cytotoxicity against human F180 cells to IC50 for cytotoxicity against human SK-MEL-5 cells"}, "[22]": {"assay": "Selectivity index, ratio of IC50 for cytotoxicity against human F180 cells to IC50 for cytotoxicity against human UACC-257 cells"}, "[23]": {"tested_on": "Panel NCI-60 (60 carcinoma cell lines)", "assay": "Cytotoxicity against human Panel NCI-60 (60 carcinoma cell lines) assessed as mean growth inhibition", "format": "functional"}, "[24]": {"assay": "Selectivity index, ratio of IC50 for cytotoxicity against human hTERT-HME1 cells to IC50 for cytotoxicity against human Hs-578T cells"}},
  "data": [
    {"smiles": "O=C(Nc1ccc(OS(=O)(=O)c2ccc(F)cc2)cc1)C12CC3CC(CC(C3)C1)C2", "values": [
      {"measurement": "IC50", "setting": "[1]", "result": 5.05, "unit": "µM"},
      {"measurement": "selectivity ratio", "setting": "[2]", "result": 84.7},
      {"measurement": "IC50", "setting": "[3]", "result": 1.13, "unit": "µM"},
      {"measurement": "inhibition", "setting": "[4]", "result": 39.6, "unit": "%"},
      {"measurement": "fold change (FC)", "setting": "[5]", "result": 1.89},
      {"measurement": "fold change (FC)", "setting": "[6]", "result": 2.72},
      {"measurement": "Activity", "setting": "[7]", "result": 3.4, "unit": "%"},
      {"measurement": "IC50", "setting": "[8]", "result": 6.05, "unit": "µM"},
      {"measurement": "Ratio IC50", "setting": "[9]", "result": 15.9},
      {"measurement": "Ratio IC50", "setting": "[10]", "result": 1.7},
      {"measurement": "IC50", "setting": "[11]", "result": 3.73, "unit": "µM"},
      {"measurement": "Activity", "setting": "[12]", "result": 1.8, "unit": "%"},
      {"measurement": "IC50", "setting": "[13]", "result": 0.68, "unit": "µM"}
    ]},
    {"smiles": "O=C(Nc1ccc(OS(=O)(=O)c2ccccc2)cc1)C12CC3CC(CC(C3)C1)C2", "values": [
      {"measurement": "IC50", "setting": "[14]", "result": 7.08, "unit": "µM"},
      {"measurement": "Activity", "setting": "[15]", "result": 2.3, "unit": "%"},
      {"measurement": "inhibition", "setting": "[16]", "result": 18.1, "unit": "%"},
      {"measurement": "fold change (FC)", "setting": "[17]", "result": 2.05},
      {"measurement": "IC50", "setting": "[18]", "result": 0.88, "unit": "µM"},
      {"measurement": "Activity", "setting": "[19]", "result": 0.5, "unit": "%"},
      {"measurement": "IC50", "setting": "[3]", "result": 1.36, "unit": "µM"},
      {"measurement": "fold change (FC)", "setting": "[20]", "result": 3.7},
      {"measurement": "Ratio IC50", "setting": "[21]", "result": 3.12},
      {"measurement": "Ratio IC50", "setting": "[22]", "result": 3.7},
      {"measurement": "inhibition (INH)", "setting": "[23]", "result": 44.5, "unit": "%"},
      {"measurement": "Ratio IC50", "setting": "[24]", "result": 6.8}
    ]}
  ]
}
